Consider five compounds from PubChem BioAssay (NCI).

Usually GI50 stands for the concentration that inhibits growth by half. As a reminder, the TGI is the concentration giving total growth inhibition.

Among the test systems are NCI-H23 lung; DLD-1 colon; DMS 114 small cell lung; DMS 273 small cell lung; HOP-62 NSCLC; KM20L2 colon; M19-MEL melanoma; RXF-631 renal; SNB-78 CNS; XF 498 CNS; MDA-MB-231 breast; MDA-MB-435; MDA-N; SNB-75 CNS.
Holding throughout (test): DTP human tumour cell line panel, 48 h

SMILES strings stand for the structures.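 1) Cells in 96-well plates. 2) Compound, 48 h, 5 concentrations. 3) Linear interpolation between surrounding doses. 4) Unreached endpoint = highest concentration. Abbreviation: GI50, concentration required for 50% inhibition of growth. TGI denotes the concentration required for complete inhibition of growth.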

Turning to `O=C(N1CCC(CN=c2cc3n(-c4ccc(Cl)cc4)c4ccccc4nc-3cc2Nc2ccc(Cl)cc2)CC1)N1CC1`, in the experiment with NCI-H23 lung, the GI50 was 1.65 µM and the TGI was 3.23 µM.
With `CCOc1ccc(N=Nc2ccc3oc(=O)c(/C(C)=N\NC(=O)CC(=O)Nc4ccc(Cl)cc4)cc3c2)cc1`, the TGI in the experiment on DLD-1 colon was 32 µM; with DMS 114 small cell lung it was 42 µM; with DMS 273 small cell lung, 37.3 µM; in the experiment on HOP-62 NSCLC it was 36.4 µM; with KM20L2 colon, above 100 µM; in the experiment with M19-MEL melanoma, above 100 µM. Further, the TGI was 41.9 µM in the experiment with NCI-H23 lung, 45.5 µM in the experiment on RXF-631 renal, above 100 µM in the experiment on SNB-78 CNS and 4.31 µM with XF 498 CNS.
On to `CCOC(=O)C1(C(=O)OCC)CSC1`, for which the TGI with MDA-MB-231 breast, with MDA-MB-435, with MDA-N, in the experiment with NCI-H23 lung and with SNB-75 CNS was above 100 µM in each case.
As for `CCSc1nc(N2CCCCC2)c2cn[nH]c2n1`, the GI50 was 11.6 µM with MDA-MB-231 breast, 28.8 µM in the experiment on MDA-MB-435, 93.2 µM in the experiment on NCI-H23 lung and 74.9 µM in the experiment on SNB-75 CNS. Also, the TGI in the experiment on MDA-MB-231 breast is above 100 µM; in the experiment with MDA-MB-435, 75.6 µM; in the experiment on NCI-H23 lung it was above 100 µM; with SNB-75 CNS it was above 100 µM.
For the compound `O=C(O)/C=C/c1cnc[nH]1`, the TGI with DLD-1 colon, in the experiment with DMS 114 small cell lung, in the experiment on DMS 273 small cell lung, in the experiment on HOP-62 NSCLC, in the experiment with KM20L2 colon and in the experiment on M19-MEL melanoma was above 500 µM in each case. Moreover, the TGI in the experiment on NCI-H23 lung, in the experiment on SNB-75 CNS, with SNB-78 CNS and in the experiment with XF 498 CNS was above 500 µM in each case. Besides, the GI50 in the experiment with KM20L2 colon and with SNB-78 CNS was above 500 µM throughout.
